Assay results reported in patent US10947254B2, “Methods for treating ulcerative colitis using 3-((1R,3s,5S)-3-((7-((5-methyl-1H-pyrazol-3-yl)amino)-1,6-naphthyridin-5-yl)amino)-8-azabicyclo[3.2.1]octan-8-yl)propanenitrile” (priority 2015, dated 2021).

What was measured:
JAK1 = JAK1 (Homo sapiens (Human), UniProt P23458); format: biochemical
Description: (§1) Assay 1: Biochemical JAK and Off-Target Kinase Assays
(§2) A panel of four LanthaScreen JAK biochemical assays (JAK1, 2, 3 and Tyk2) were carried in a common kinase reaction buffer (50 mM HEPES, pH 7.5, 0.01% Brij-35, 10 mM MgCl2, and 1 mM EGTA). Recombinant GST-tagged JAK enzymes and a GFP-tagged STAT1 peptide substrate were obtained from Life Technologies.
(§3) Serially diluted compounds were pre-incubated with each of the four JAK enzymes and the substrate in white 384-well microplates (Corning) at ambient temperature for 1 h. ATP was subsequently added to initiate the kinase reactions in 10 μL total volume, with 1% DMSO. […] Kinase reactions were allowed to proceed for 1 hour at ambient temperature before a 10 μL preparation of EDTA (10 mM final concentration) and Tb-anti-pSTAT1 (pTyr701) antibody (Life Technologies, 2 nM final concentration) in TR-FRET dilution buffer (Life Technologies) was added. The plates were allowed to incubate at ambient temperature for 1 h before being read on the EnVision reader (Perkin Elmer).
(§4) Results were expressed as pIC50 (negative logarithm of IC50) and subsequently converted to pKi (negative logarithm of dissociation constant, Ki) using the Cheng-Prusoff equation.

TYK2 = TYK2 (Homo sapiens (Human), UniProt P29597); format: biochemical
Description: as §1, §2, §3, §4

JAK3 = JAK3 (Homo sapiens (Human), UniProt P52333); assay: Biochemical JAK assay (LanthaScreen), JAK3
Description: as §1, §2
Serially diluted compounds were pre-incubated with each of the four JAK enzymes and the substrate in white 384-well microplates (Corning) at ambient temperature for 1 h. ATP was subsequently added to initiate the kinase reactions in 10 μL total volume, with 1% DMSO. […] The plates were allowed to incubate at ambient temperature for 1 h before being read on the EnVision reader (Perkin Elmer).
as §4

[1] = tested on: IL-4 induced STAT6 phosphorylation in THP-1 human monocytic cells; details: THP-1 cells
JAK2 = JAK2 (Homo sapiens (Human), UniProt O60674); format: biochemical
Description: as §1, §2, §3, §4

[2] = tested on: IL-13 induced STAT6 phosphorylation in BEAS-2B human lung epithelial cells; details: BEAS-2B cells
[3] = tested on: splenic NK, B and T cells; assay: Immunosuppression effects in mouse splenic natural killer (NK) cells; format: in vivo, Balb/C mice; details: mice, three days
Description: Adult male Balb/C mice (12-14 weeks of age) from Harlan were used for the study. […] Spleens were harvested 1 or 2 h post last dose and crushed immediately for cell subtype staining. Prior to fixation, fluorophore-labelled antibodies for CD19 (FITC; B cells), CD3e (PE; pan T cells) and DX5 (APC; NK cells) were incubated with splenocyte samples from each animal to allow for simultaneous, multiple subtype % analysis on the flow cytometer. The number of total spleen cells for each animal was measured by Scepter™ 2.0 Handheld Automated Cell Counter. The absolute number of lymphocyte subtype population (e.g., splenic B, T and NK cells) was calculated from the percentage of each subtype times total spleen cells for each animal. A one way ANOVA, with Dunnett's post hoc test, was used to compare the splenic lymphocytes number of the vehicle and test compound groups. The a level was set at p<0.05. Data were presented as the mean±SEM for each group.

Sequence of JAK3 (P52333 whole entry): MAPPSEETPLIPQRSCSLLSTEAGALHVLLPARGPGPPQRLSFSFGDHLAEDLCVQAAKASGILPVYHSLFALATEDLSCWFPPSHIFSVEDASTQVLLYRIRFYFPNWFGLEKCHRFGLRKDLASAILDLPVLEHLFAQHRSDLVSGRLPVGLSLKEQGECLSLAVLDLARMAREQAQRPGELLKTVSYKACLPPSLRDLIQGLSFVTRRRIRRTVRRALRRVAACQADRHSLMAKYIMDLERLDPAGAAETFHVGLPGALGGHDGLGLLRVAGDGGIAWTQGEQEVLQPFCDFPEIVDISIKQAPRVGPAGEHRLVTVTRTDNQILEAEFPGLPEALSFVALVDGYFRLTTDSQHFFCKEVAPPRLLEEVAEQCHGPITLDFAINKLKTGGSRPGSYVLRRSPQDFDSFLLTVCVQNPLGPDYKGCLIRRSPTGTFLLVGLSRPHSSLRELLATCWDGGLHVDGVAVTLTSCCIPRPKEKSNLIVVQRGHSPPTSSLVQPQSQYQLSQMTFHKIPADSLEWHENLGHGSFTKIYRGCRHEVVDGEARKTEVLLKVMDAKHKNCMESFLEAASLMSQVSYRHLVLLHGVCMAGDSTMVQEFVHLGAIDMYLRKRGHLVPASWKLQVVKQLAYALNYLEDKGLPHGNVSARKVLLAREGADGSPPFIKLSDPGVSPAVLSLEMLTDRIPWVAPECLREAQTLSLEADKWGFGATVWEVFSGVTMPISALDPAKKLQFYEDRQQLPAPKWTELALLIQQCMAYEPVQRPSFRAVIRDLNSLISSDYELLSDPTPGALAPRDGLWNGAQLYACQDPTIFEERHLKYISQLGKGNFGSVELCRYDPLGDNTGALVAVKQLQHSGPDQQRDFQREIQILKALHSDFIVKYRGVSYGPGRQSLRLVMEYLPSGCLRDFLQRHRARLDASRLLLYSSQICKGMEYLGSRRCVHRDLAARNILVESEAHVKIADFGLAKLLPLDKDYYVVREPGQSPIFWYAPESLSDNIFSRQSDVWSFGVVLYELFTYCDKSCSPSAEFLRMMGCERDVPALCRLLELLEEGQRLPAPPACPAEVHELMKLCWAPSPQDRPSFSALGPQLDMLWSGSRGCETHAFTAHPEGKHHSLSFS
Sequence of TYK2 (P29597 whole entry): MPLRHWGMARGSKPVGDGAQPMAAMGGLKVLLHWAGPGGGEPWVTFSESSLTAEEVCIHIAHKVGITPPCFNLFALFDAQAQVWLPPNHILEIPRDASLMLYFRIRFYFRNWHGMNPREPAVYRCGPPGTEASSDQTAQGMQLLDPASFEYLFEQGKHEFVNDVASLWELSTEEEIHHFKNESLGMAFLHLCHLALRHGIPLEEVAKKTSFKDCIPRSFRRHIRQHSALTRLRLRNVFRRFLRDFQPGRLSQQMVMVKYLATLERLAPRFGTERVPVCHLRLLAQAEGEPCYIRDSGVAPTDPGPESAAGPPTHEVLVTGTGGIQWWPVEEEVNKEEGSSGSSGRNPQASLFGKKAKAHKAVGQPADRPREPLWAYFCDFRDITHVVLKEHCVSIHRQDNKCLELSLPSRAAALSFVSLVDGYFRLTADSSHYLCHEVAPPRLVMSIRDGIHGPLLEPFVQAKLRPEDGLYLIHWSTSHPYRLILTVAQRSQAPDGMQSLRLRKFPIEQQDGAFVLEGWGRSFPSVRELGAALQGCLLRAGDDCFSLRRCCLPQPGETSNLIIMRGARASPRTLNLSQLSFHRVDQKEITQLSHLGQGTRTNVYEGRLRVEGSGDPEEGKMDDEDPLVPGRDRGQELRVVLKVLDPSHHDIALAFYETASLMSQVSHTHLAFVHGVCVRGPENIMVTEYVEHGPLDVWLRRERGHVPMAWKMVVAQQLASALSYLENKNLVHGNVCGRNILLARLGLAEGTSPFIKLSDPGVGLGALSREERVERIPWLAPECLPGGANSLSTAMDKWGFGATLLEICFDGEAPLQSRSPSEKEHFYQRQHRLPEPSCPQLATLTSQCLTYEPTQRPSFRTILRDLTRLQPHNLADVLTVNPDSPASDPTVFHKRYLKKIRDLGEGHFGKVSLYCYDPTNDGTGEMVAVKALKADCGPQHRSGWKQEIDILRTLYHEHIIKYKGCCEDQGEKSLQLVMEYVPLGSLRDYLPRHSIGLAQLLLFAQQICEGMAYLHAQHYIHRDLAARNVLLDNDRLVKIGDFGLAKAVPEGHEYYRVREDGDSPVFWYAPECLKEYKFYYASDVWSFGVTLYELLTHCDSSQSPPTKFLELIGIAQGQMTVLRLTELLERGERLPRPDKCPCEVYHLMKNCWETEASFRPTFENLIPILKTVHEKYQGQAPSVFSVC
Sequence of JAK1 (P23458 whole entry): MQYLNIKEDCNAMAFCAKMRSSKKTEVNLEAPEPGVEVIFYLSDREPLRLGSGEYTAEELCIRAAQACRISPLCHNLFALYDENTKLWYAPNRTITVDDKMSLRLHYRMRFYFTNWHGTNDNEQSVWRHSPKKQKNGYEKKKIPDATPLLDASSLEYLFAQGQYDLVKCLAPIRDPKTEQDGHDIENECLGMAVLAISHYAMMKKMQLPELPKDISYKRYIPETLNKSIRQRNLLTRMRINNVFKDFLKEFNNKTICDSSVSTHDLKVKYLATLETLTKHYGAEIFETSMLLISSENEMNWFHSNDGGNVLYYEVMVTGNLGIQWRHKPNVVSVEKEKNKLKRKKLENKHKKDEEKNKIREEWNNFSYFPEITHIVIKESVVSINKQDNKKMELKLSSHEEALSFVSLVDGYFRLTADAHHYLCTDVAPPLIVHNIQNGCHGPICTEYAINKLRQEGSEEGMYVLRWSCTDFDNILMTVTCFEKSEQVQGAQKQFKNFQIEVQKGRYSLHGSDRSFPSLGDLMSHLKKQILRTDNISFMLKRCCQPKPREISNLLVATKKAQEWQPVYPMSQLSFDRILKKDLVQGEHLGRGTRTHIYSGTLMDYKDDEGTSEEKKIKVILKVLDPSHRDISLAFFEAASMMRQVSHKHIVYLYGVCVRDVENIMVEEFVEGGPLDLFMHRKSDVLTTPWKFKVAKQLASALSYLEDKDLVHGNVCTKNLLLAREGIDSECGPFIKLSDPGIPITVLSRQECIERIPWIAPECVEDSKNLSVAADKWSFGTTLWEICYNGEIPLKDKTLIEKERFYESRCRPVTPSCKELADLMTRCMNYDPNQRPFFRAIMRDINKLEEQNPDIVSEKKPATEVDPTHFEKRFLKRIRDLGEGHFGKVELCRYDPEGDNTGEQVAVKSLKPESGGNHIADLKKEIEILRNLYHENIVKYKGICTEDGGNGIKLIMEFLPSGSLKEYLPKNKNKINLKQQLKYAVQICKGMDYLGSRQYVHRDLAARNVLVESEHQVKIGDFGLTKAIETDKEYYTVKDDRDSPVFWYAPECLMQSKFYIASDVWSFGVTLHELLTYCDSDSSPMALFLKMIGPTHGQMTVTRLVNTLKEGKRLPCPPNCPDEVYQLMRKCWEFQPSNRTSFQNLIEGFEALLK
Sequence of JAK2 (O60674 whole entry): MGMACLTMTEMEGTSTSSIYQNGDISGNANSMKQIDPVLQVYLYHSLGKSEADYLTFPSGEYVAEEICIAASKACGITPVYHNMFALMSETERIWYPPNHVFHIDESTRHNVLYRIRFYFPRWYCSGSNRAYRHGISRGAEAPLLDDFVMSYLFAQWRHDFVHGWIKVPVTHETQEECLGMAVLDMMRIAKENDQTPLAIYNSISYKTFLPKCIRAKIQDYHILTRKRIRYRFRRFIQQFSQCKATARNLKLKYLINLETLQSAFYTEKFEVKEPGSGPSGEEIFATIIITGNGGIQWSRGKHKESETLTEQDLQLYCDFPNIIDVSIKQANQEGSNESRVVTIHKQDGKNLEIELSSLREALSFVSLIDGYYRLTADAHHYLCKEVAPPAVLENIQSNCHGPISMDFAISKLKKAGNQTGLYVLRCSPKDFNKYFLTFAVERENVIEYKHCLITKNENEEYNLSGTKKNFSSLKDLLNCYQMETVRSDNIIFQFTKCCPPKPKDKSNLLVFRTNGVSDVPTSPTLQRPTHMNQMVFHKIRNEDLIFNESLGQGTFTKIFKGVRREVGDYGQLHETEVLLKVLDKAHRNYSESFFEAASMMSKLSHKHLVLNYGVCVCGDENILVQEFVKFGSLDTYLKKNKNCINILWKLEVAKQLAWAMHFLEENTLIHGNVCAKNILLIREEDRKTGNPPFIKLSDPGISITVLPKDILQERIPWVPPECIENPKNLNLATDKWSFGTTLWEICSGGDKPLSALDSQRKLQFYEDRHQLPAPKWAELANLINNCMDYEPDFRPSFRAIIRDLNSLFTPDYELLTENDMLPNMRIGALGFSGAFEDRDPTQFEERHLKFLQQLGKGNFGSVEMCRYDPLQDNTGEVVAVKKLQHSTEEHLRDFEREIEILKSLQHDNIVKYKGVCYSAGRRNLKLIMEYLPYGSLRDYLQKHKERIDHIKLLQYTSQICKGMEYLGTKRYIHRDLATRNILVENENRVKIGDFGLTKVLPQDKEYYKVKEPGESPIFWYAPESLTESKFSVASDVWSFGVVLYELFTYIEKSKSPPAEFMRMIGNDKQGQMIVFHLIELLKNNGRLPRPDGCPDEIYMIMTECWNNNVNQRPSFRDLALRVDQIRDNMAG

Row | SMILES | JAK 1 (pKi) (JAK1) | Tyk 2 (pKi) (TYK2) | JAK 3 (pKi) (JAK3) | THP-1 IL4 pIC50 [1] | JAK 2 (pKi) (JAK2) | BEAS2B pIC50 [2] | splenic NK cell counts ([3]; 30 mg/kg PO BID) | treatment effect on B and T cell populations ([3]; PO BID)
1 | Cc1cc(Nc2cc3ncccc3c(N[C@@H]3C[C@H]4CC[C@@H](C3)N4C(=O)C3(C(F)(F)F)CC3)n2)n[nH]1 [Example 2-7] | B (B represents a pKi value between 9 and 10 (Ki between 1 nM and 0.1 nM)) | C (C represents a pKi value between 7 and 9 (Ki between 100 nM and 1 nM)) | C (C represents a pKi value between 7 and 9 (Ki between 100 nM and 1 nM)) | B (B represents a pEC50 value between 6.7 and 7.5 (EC50 between 200 nM and 32 nM)) |  |  |  | 
2 | Cc1cc(Nc2cc3ncccc3c(N[C@@H]3C[C@H]4CC[C@@H](C3)N4C(=O)C3(C#N)CC3)n2)n[nH]1 [Example 2-8] | B (B represents a pKi value between 9 and 10 (Ki between 1 nM and 0.1 nM)) | C (C represents a pKi value between 7 and 9 (Ki between 100 nM and 1 nM)) |  | B (B represents a pEC50 value between 6.7 and 7.5 (EC50 between 200 nM and 32 nM)) | B (B represents a pKi value between 9 and 10 (Ki between 1 nM and 0.1 nM)) |  |  | 
3 | Cc1cc(Nc2cc3ncccc3c(N[C@@H]3C[C@H]4CCC[C@@H](C3)N4C(=O)C3(C(F)(F)F)CC3)n2)n[nH]1 [Example 2-19] | B (B represents a pKi value between 9 and 10 (Ki between 1 nM and 0.1 nM)) | B (B represents a pKi value between 9 and 10 (Ki between 1 nM and 0.1 nM)) | C (C represents a pKi value between 7 and 9 (Ki between 100 nM and 1 nM)) | A (A represents a pEC50 value ≥7.5 (EC50≤32 nM)) |  |  |  | 
4 | Cc1cc(Nc2cc3ncccc3c(N[C@@H]3C[C@H]4CCC[C@@H](C3)N4C(=O)C3(C#N)CC3)n2)n[nH]1 [Example 2-20] | B (B represents a pKi value between 9 and 10 (Ki between 1 nM and 0.1 nM)) | C (C represents a pKi value between 7 and 9 (Ki between 100 nM and 1 nM)) |  | A (A represents a pEC50 value ≥7.5 (EC50≤32 nM)) | B (B represents a pKi value between 9 and 10 (Ki between 1 nM and 0.1 nM)) | A (A represents a pEC50 value ≥7.5 (EC50≤32 nM)) |  | 
5 | Cc1cnc2cc(Nc3cc(C)[nH]n3)nc(N[C@@H]3C[C@H]4CC[C@@H](C3)N4S(C)(=O)=O)c2c1 [Example 6-5] | B (B represents a pKi value between 9 and 10 (Ki between 1 nM and 0.1 nM)) | B (B represents a pKi value between 9 and 10 (Ki between 1 nM and 0.1 nM)) | C (C represents a pKi value between 7 and 9 (Ki between 100 nM and 1 nM)) | A (A represents a pEC50 value ≥7.5 (EC50≤32 nM)) |  | A (A represents a pEC50 value ≥7.5 (EC50≤32 nM)) |  | 
6 | Cc1cnc2cc(Nc3cc(C)[nH]n3)nc(N[C@@H]3C[C@H]4CCC[C@@H](C3)N4S(C)(=O)=O)c2c1 [Example 6-8] | B (B represents a pKi value between 9 and 10 (Ki between 1 nM and 0.1 nM)) | B (B represents a pKi value between 9 and 10 (Ki between 1 nM and 0.1 nM)) | B (B represents a pKi value between 9 and 10 (Ki between 1 nM and 0.1 nM)) | A (A represents a pEC50 value ≥7.5 (EC50≤32 nM)) |  | A (A represents a pEC50 value ≥7.5 (EC50≤32 nM)) |  | 
7 | COC(=O)c1cnc2cc(Nc3cc(C)[nH]n3)nc(N[C@@H]3C[C@H]4CC[C@@H](C3)N4CCCF)c2c1 [Example 6-44] | B (B represents a pKi value between 9 and 10 (Ki between 1 nM and 0.1 nM)) |  |  |  |  |  |  | 
8 | COC(=O)c1cnc2cc(Nc3cc(C)[nH]n3)nc(N[C@@H]3C[C@H]4CCC[C@@H](C3)N4C3CCOC(=O)C3)c2c1 (stereo partly shown) [Example 6-48] | B (B represents a pKi value between 9 and 10 (Ki between 1 nM and 0.1 nM)) | C (C represents a pKi value between 7 and 9 (Ki between 100 nM and 1 nM)) | C (C represents a pKi value between 7 and 9 (Ki between 100 nM and 1 nM)) | B (B represents a pEC50 value between 6.7 and 7.5 (EC50 between 200 nM and 32 nM)) |  |  |  | 
9 | C[C@@H]1CCN(C(=O)CC#N)C[C@@H]1N(C)c1ncnc2[nH]ccc12 [tofacitinib, reference compound] |  |  |  |  |  |  | significantly decreased | No treatment effect
